Data as given in patent publication US20250127766A1, “METHODS AND COMPOSITIONS FOR TREATING CDKL5 DISORDER USING MONOAMINE OXIDASE INHIBITORS” (priority 2023, published 2025).

How the values were obtained:
CDKL5 knockout mice = assay: In vivo studies in CDKL5 knockout mice: synaptic transmission and neuronal connectivity
Method: This dosing regimen may serve as a reference point for establishing human doses. Extrapolating from these animal models, an initial dosing range for children of 1 to 2 mg/kg per day. This range can be adjusted depending on the individual's size and response, with a narrower range of 1.5 to 2 mg/kg per day for more precise dosing or even tighter to 1.75 to 2 mg/kg per day in specific cases. For broader clinical flexibility, a starting range of 0.5 to 3 mg/kg per day might be considered for pediatric populations, with adjustments based on individual tolerance and therapeutic outcomes.
In in vivo studies, animal models of neurodevelopmental disorders, including CDKL5 knockout mice, have been treated with liquiritin to assess its impact on synaptic transmission and neuronal connectivity.

[1] = test system: CDKL5-deficient organoids; assay: Network activity of organoids derived from patient iPSCs; assay type: cell-based, human; settings: CDKL5-deficient organoids treated with harmine
Method: Another set of experiments was conducted using organoids derived from patient-induced pluripotent stem cells (iPSCs). Organoids are three-dimensional structures created from stem cells that closely resemble specific organs or tissues in terms of cellular composition, architecture, and function. These structures are widely used in biomedical research because they replicate the complexity of real organs, including their multiple cell types, tissue-specific structures, and the functions of the organ being modeled. In this study, organoids were generated to mimic the neuronal network of patients with CDKL5 deficiency disorder (CDD), providing a model system to explore the underlying mechanisms of the disorder and test potential therapeutic approaches.
Increased network excitability refers to an overactive state where neurons fire excessively, a characteristic associated with the seizure activity observed in CDD patients. Altered synchrony in the neuronal network reflects disrupted communication between neurons, contributing to cognitive impairments.

[2] = test system: proinflammatory cytokines and chemokines; assay: Production and release of proinflammatory cytokines and chemokines
GABA receptor = settings: in vitro; cited from earlier work
microglial cells = assay: Microglial activity
From the text: This activation is associated with the release of proinflammatory cytokines, which promote neuroinflammatory processes.

DYRK1A = biological target: T1, DYRK1A (Homo sapiens, UniProt Q13627); assay: DYRK1A activity in harmine-treated organoids; assay type: cell-based
T1 construct: endogenous in cells; host or cells: CDKL5-deficient organoids
From the text: DYRK1A is a kinase that adds phosphate groups to proteins, thereby regulating their function. In CDKL5 deficiency, the lack of CDKL5-mediated regulation leads to overactivation of DYRK1A, resulting in dysregulated synaptic signaling and impaired neuronal communication. Harmine, by selectively inhibiting DYRK1A, restores the phosphorylation balance at the synapse, preventing over-phosphorylation of critical synaptic proteins. This modulation of synaptic signaling pathways by harmine contributes to the restoration of neuronal connectivity and the normalization of network activity in the treated organoids.

EB2 phosphorylation = EB2 phosphorylation in CDKL5 knockout (KO) mouse model; assay type: in vivo; settings: knockout (KO) male and Het female mice; compared with vehicle (drinking water)
Method: In this context, EB2 phosphorylation acts as a functional molecular readout for the disease-modifying potential of small molecules, such as monoamine oxidase inhibitors (MAO-Is). When studying the efficacy of potential therapies for CDD, the measurement of EB2 phosphorylation levels can provide insight into whether the treatment is capable of compensating for the dysfunctional CDKL5 protein.
To evaluate the impact of MAO-Is on EB2 phosphorylation, an in vivo study was conducted using a well-established CDKL5 knockout (KO) mouse model, specifically the B6.129(FVB)-Cdk15tm1.1Joez/J strain from Jackson Laboratories. […] These mice provide a relevant model for testing how pharmacological agents such as MAO-Is can modulate neuronal activity and potentially restore normal function in the absence of CDKL5.
The increase in EB2 phosphorylation in these models provides compelling evidence that MAO-Is offer a disease-modifying therapeutic approach for patients with CDKL5 deficiency disorder, by targeting key molecular pathways involved in synaptic transmission and brain development.

[3] = test system: oxidative damage of neurons; settings: cited from earlier work
MAO-B = biological target: T2, MAO-B (Homo sapiens, UniProt P27338); assay: MAO-B inhibitory activity; assay type: biochemical
T2 sequence (P27338 1-520): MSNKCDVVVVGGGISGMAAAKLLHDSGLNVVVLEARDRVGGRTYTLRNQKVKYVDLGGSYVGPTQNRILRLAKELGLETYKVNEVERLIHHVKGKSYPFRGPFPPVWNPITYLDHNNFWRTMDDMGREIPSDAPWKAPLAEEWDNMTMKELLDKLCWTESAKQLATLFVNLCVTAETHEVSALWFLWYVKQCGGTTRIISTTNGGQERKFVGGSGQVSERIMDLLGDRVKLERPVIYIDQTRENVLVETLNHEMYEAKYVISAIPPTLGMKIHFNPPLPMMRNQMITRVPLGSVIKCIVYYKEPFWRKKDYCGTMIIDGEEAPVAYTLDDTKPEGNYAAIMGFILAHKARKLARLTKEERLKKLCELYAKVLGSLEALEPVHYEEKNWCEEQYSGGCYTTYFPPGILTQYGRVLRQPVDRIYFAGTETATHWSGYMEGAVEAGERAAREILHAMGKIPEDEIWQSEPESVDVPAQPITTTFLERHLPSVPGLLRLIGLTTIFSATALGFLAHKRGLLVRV
From the text: Though its MAO-B inhibitory activity is not as potent as that of other compounds such as safinamide, its ability to mildly modulate neurotransmitter levels, particularly dopamine and serotonin, may be beneficial in improving synaptic communication in CDD. In addition to its interaction with the monoamine pathways, liquiritin's anti-inflammatory properties may aid in reducing the neuroinflammation often observed in CDKL5-deficient patients. By targeting both neurotransmitter regulation and inflammatory processes, liquiritin offers a dual mechanism that may be effective in restoring synaptic balance.

[4] = test system: seizures in animal models; settings: cited from earlier work

COc1ccc2c(c1)[nH]c1c(C)nccc12 [harmine]
efficacy of the dosing regimen (CDKL5 knockout mice; 30 mg/kg intraperitoneally, 5 days on, 2 days off, another 5-day cycle): has shown efficacy
neurological outcomes (CDKL5 knockout mice; CDKL5 knockout mice): improved neurological outcomes
synaptic transmission and neuronal connectivity (CDKL5 knockout mice; CDKL5 knockout mice): significant improvements in synaptic transmission and neuronal connectivity
burst firing patterns [1]: normalized the burst firing patterns
network excitability [1]: reduced network excitability
neuronal synchrony [1]: improved neuronal synchrony
production and release of proinflammatory cytokines and chemokines [2]: inhibits the production and release of proinflammatory cytokines and chemokines
GABA receptor activity (GABA receptor): increases GABA receptor activity
microglial activity (overactivation) (microglial cells): reducing their overactivation
DYRK1A activity (DYRK1A): modulation of DYRK1A activity

O=C1C[C@@H](c2ccc(O[C@@H]3O[C@H](CO)[C@@H](O)[C@H](O)[C@H]3O)cc2)Oc2cc(O)ccc21 [liquiritin]
synaptic function (CDKL5 knockout mice; animal models including CDKL5 knockout mice): moderate improvements in synaptic function
EB2 phosphorylation levels (EB2 phosphorylation): effective in increasing EB2 phosphorylation levels
antioxidant activity [3]: demonstrated antioxidant activity
MAO-B inhibitory activity (MAO-B): weak MAO-B inhibitor

C[C@H](NCc1ccc(OCc2cccc(F)c2)cc1)C(N)=O [safinamide]
anticonvulsant properties [4]: suppress seizures and provide neuroprotective effects
